Experimental data taken from the NIST ThermoML archive (doi:10.1007/s10765-012-1185-1).
Numbers after ± are expanded uncertainties.

Conditions: Gas

[C-]#[O+] [carbon monoxide]
viscosity (288.72 K, Mass density=0.52 kg/m3): 0.01732 ± 0.00012 mPa·s | viscosity (288.91 K, Mass density=0.78 kg/m3): 0.01733 ± 0.00012 mPa·s | viscosity (292.39 K, Mass density=0.52 kg/m3): 0.0175 ± 0.00012 mPa·s | viscosity (296.53 K, Mass density=0.78 kg/m3): 0.0177 ± 0.00013 mPa·s | viscosity (296.67 K, Mass density=0.78 kg/m3): 0.0177 ± 0.00013 mPa·s | viscosity (296.74 K, Mass density=0.52 kg/m3): 0.01769 ± 0.00013 mPa·s | viscosity (296.81 K, Mass density=0.52 kg/m3): 0.0177 ± 0.00013 mPa·s | viscosity (297.19 K, Mass density=0.52 kg/m3): 0.01771 ± 0.00013 mPa·s | viscosity (298.54 K, Mass density=0.52 kg/m3): 0.01778 ± 0.00013 mPa·s | viscosity (298.58 K, Mass density=0.52 kg/m3): 0.01778 ± 0.00013 mPa·s | viscosity (299.09 K, Mass density=0.52 kg/m3): 0.0178 ± 0.00013 mPa·s | viscosity (299.27 K, Mass density=0.52 kg/m3): 0.01781 ± 0.00013 mPa·s | viscosity (323.27 K, Mass density=0.78 kg/m3): 0.0189 ± 0.00013 mPa·s | viscosity (323.95 K, Mass density=0.52 kg/m3): 0.01894 ± 0.00013 mPa·s | viscosity (349.98 K, Mass density=0.78 kg/m3): 0.02007 ± 0.00014 mPa·s | viscosity (350.09 K, Mass density=0.52 kg/m3): 0.02007 ± 0.00014 mPa·s | viscosity (377.57 K, Mass density=0.78 kg/m3): 0.02123 ± 0.00015 mPa·s | viscosity (377.81 K, Mass density=0.52 kg/m3): 0.02123 ± 0.00015 mPa·s | viscosity (405.3 K, Mass density=0.78 kg/m3): 0.02235 ± 0.00015 mPa·s | viscosity (405.55 K, Mass density=0.52 kg/m3): 0.02236 ± 0.00015 mPa·s | viscosity (433.29 K, Mass density=0.78 kg/m3): 0.02345 ± 0.00016 mPa·s | viscosity (433.45 K, Mass density=0.52 kg/m3): 0.02345 ± 0.00016 mPa·s | viscosity (461.39 K, Mass density=0.78 kg/m3): 0.02452 ± 0.00016 mPa·s | viscosity (461.45 K, Mass density=0.52 kg/m3): 0.02451 ± 0.00016 mPa·s | viscosity (489.68 K, Mass density=0.78 kg/m3): 0.02558 ± 0.00017 mPa·s | viscosity (489.81 K, Mass density=0.52 kg/m3): 0.02557 ± 0.00017 mPa·s | viscosity (518.13 K, Mass density=0.78 kg/m3): 0.02659 ± 0.00018 mPa·s | viscosity (518.44 K, Mass density=0.52 kg/m3): 0.0266 ± 0.00018 mPa·s | viscosity (542.05 K, Mass density=0.52 kg/m3): 0.02744 ± 0.00018 mPa·s | viscosity (542.09 K, Mass density=0.78 kg/m3): 0.02744 ± 0.00018 mPa·s | viscosity (564.73 K, Mass density=0.78 kg/m3): 0.02822 ± 0.00019 mPa·s | viscosity (593.37 K, Mass density=0.52 kg/m3): 0.02919 ± 0.00019 mPa·s | viscosity (593.52 K, Mass density=0.78 kg/m3): 0.0292 ± 0.00019 mPa·s | viscosity (622.5 K, Mass density=0.52 kg/m3): 0.03015 ± 0.0002 mPa·s | viscosity (622.67 K, Mass density=0.78 kg/m3): 0.03016 ± 0.0002 mPa·s | viscosity (651.51 K, Mass density=0.78 kg/m3): 0.0311 ± 0.0002 mPa·s | viscosity (651.68 K, Mass density=0.52 kg/m3): 0.0311 ± 0.0002 mPa·s | viscosity (680.94 K, Mass density=0.78 kg/m3): 0.03203 ± 0.00021 mPa·s | viscosity (681.07 K, Mass density=0.52 kg/m3): 0.03203 ± 0.00021 mPa·s

N#N [nitrogen]
viscosity (291.55 K, Mass density=0.72 kg/m3): 0.01747 ± 0.00012 mPa·s | viscosity (294.73 K, Mass density=0.72 kg/m3): 0.01762 ± 0.00013 mPa·s | viscosity (296.88 K, Mass density=0.72 kg/m3): 0.01771 ± 0.00013 mPa·s | viscosity (324 K, Mass density=0.72 kg/m3): 0.01894 ± 0.00013 mPa·s | viscosity (350.42 K, Mass density=0.72 kg/m3): 0.02009 ± 0.00014 mPa·s | viscosity (378.04 K, Mass density=0.72 kg/m3): 0.02125 ± 0.00015 mPa·s | viscosity (405.75 K, Mass density=0.72 kg/m3): 0.02237 ± 0.00015 mPa·s | viscosity (433.79 K, Mass density=0.72 kg/m3): 0.02347 ± 0.00016 mPa·s | viscosity (461.81 K, Mass density=0.72 kg/m3): 0.02453 ± 0.00016 mPa·s | viscosity (490.21 K, Mass density=0.72 kg/m3): 0.02559 ± 0.00017 mPa·s | viscosity (518.59 K, Mass density=0.72 kg/m3): 0.02661 ± 0.00018 mPa·s | viscosity (542.47 K, Mass density=0.72 kg/m3): 0.02747 ± 0.00018 mPa·s | viscosity (565.16 K, Mass density=0.72 kg/m3): 0.02825 ± 0.00019 mPa·s | viscosity (594.04 K, Mass density=0.72 kg/m3): 0.02922 ± 0.00019 mPa·s | viscosity (623.22 K, Mass density=0.72 kg/m3): 0.0302 ± 0.0002 mPa·s | viscosity (652.36 K, Mass density=0.72 kg/m3): 0.03114 ± 0.0002 mPa·s | viscosity (681.99 K, Mass density=0.72 kg/m3): 0.03209 ± 0.00021 mPa·s
